The target in the assay is T1, human renal renin (Homo sapiens, UniProt P00797).
T1 construct: human renal renin, free from acid proteolytic activity; from tissue
T1 sequence (P00797 67-406): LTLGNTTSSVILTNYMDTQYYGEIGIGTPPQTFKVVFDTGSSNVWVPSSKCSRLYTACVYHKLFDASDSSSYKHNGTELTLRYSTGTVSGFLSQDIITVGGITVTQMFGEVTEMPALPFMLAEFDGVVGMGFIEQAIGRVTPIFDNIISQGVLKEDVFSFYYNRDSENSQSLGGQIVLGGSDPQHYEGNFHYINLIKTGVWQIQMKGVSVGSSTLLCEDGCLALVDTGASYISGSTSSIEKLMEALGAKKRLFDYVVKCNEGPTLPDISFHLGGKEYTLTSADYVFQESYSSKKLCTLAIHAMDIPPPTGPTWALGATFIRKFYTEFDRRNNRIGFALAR
Description: Inhibition of human renal renin in vitro (angiotensin I formed, radioimmunoassay). Format: biochemical. The note with it: human angiotensinogen substrate, 37 degrees C., pH 6.0. As for the experimental part: The novel compounds of the present invention are also useful for treating congestive heart failure. […] At the end of the incubation, the amount of angiotensin I formed is measured by radioimmunoassay and the molar concentration required to cause 50% inhibition, expressed as the IC50, is calculated.

In general, IC50 refers to the concentration at which inhibition is half-maximal. Read a low IC50 as greater potency in that assay.

`CCCCC(C(=O)N[C@@H](CC1CCCCC1)[C@@H](O)[C@@H](O)CC(C)C)N1CCCC(Cc2ccccc2)C1=O` (mixture of isomers) [Example 56A, 2(RS)-(3-Benzyl-2-oxo-1-piperidin-1-yl)-hexanoic acid Amide of 2(S)-Amino-1-cyclohexyl-3(R),4(S)-dihydroxy-6-heptane] returned an IC50 of 410 nM.
As for `CC(C)C[C@H](O)[C@H](O)[C@H](CC1CCCCC1)NC(=O)C(Cc1cnc[nH]1)N1CCC(Cc2ccccc2)(NC(=O)OCc2ccccc2)C1=O` (single isomer, unassigned) [Example 63B], the figure is 15 nM; as for `CC(C)C[C@H](O)[C@H](O)[C@H](CC1CCCCC1)NC(=O)C(Cc1cnc[nH]1)N1CCC(Cc2ccccc2)(NC(=O)OCc2ccccc2)C1=O` (single isomer, unassigned) [Example 63C], 4.5 nM; as for `CC(C)C[C@H](O)[C@H](O)[C@H](CC1CCCCC1)NC(=O)C(Cc1cnc[nH]1)N1CCC[C@@](Cc2ccccc2)(NC(=O)OCc2ccccc2)C1=O` (single isomer, unassigned) [Example 87, (2R or 2S)-((3S)-(Benzyloxycarbonyl)amino)-3-phenylmethyl-2-oxo-1-piperidinyl)-3-(4-imidazolyl)propionic acid amide of (2S,3R,4S)-2-amino-1-cyclohexyl-3,4-dihydroxy-6-methylheptane], 1.4 nM.
`CC(C)C[C@H](O)[C@H](O)[C@H](CC1CCCCC1)NC(=O)C(Cc1cnc[nH]1)N1CCC[C@](Cc2ccccc2)(NC(=O)OCc2ccccc2)C1=O` (single isomer, unassigned) [Example 88, (2R or 2S)-((3R)-((Benzyloxycarbonyl)amino)-3-phenylmethyl-2-oxo-1-piperidinyl)-3-(4-imidazolyl)propionic acid amide of (2S,3R,4S)-2-amino-1-cyclohexyl-3,4-dihydroxy-6-methylheptane] had an IC50 of 28 nM.
As for `CCCCC(C(=O)N[C@@H](CC1CCCCC1)[C@@H](O)[C@@H](O)CC(C)C)N1CCN(c2ncccn2)CC1` (stereo partly drawn) [Example 12A, 2-(4-(2-Pyrimidyl)-piperazin-1-yl)-hexanoic acid Amide of 2(S)-Amino-1-cyclohexyl-3(R),4(S)-dihydroxy-6-methylheptane], the figure is 770 nM; as for `CCCCC(C(=O)N[C@@H](CC1CCCCC1)[C@@H](O)[C@@H](O)CC(C)C)N1CCC(Cc2ccccc2)CC1` (stereo partly drawn) [Example 13, 2-(4-Benzylpiperidin-1-yl)-hexanoic acid Amide of 2(S)-Amino-1-cyclohexyl-3(R),4(S)-dihydroxy-6-methylheptane], 430 nM; as for `CCCCC(C(=O)N[C@@H](CC1CCCCC1)[C@@H](O)[C@@H](O)CC(C)C)N1CCCC(Cc2ccccc2)C1` (stereo partly drawn) [Example 18, 2-(3-Benzylpiperidin-1-yl)-hexanoic acid Amide of 2(S)-Amino-1-cyclohexyl-3(R),4(S)-dihydroxy-6-methylheptane], 920 nM.
The figure for `CCCCC(C(=O)N[C@@H](CC1CCCCC1)[C@@H](O)[C@@H](O)CC(C)C)N1CCCC(Cc2ccccc2)C1` (stereo partly drawn) [Example 20, 2(3-Benzylpiperidin-1-yl)-hexanoic acid Amide of 2(S)-Amino-1-cyclohexyl-3(R),4(S)-dihydroxy-6-methylheptane] is 240 nM; for `CCCC[C@H](NC[C@@H](Cc1ccccc1)NC(=O)OCc1ccccc1)C(=O)OC` [Example 21] it is 62 nM; for `CCCC[C@@H](C(=O)OC)N(CC(=O)OCc1ccccc1)C[C@@H](Cc1ccccc1)NC(=O)OCc1ccccc1` [Example 22] it is 300 nM.
As for `CCCC[C@@H](C(=O)N[C@@H](CC1CCCCC1)[C@@H](O)[C@@H](O)CC(C)C)N1CC(=O)N[C@H](Cc2ccccc2)C1` [Example 24], the figure is 170 nM.
As to `CCCCC(C(=O)N[C@@H](CC1CCCCC1)[C@@H](O)[C@@H](O)CC(C)C)N1CCN(Cc2ccccc2)CC1` (stereo partly drawn) [Example 32A, 2-(4-Benzyl-piperazin-1-yl)-hexanoic acid Amide of 2(S)-Amino-1-cyclohexyl-3(R),4(S)-dihydroxy-6-methylheptane], the midpoint of inhibition, the IC50, lay at 810 nM.
The figure for `CCCCC(C(=O)N[C@@H](CC1CCCCC1)[C@@H](O)[C@@H](O)CC(C)C)N1CCN(C(=O)OC(C)(C)C)[C@@H](Cc2ccccc2)C1` (stereo partly drawn) [Example 34A, 2-(3S-Benzyl-4-N-tert-butyloxycarbonyl-piperazin-1-yl)-hexanoic acid Amide of 2(S)-Amino-1-cyclohexyl-3(R),4(S)-dihydroxy-6-methylheptane] is 100 nM; for `CCCCC(C(=O)N[C@@H](CC1CCCCC1)[C@@H](O)[C@@H](O)CC(C)C)N1CCN(C(=O)N(C)C)[C@H](Cc2ccccc2)C1` (stereo partly drawn) [Example 35A, 2-(3R-Benzyl-4-N-dimethylaminocarbonyl-piperazin-1-yl)-hexanoic acid Amide of 2(S)-Amino-1-cyclohexyl-3(R),4(S)-dihydroxy-6-methylheptane] it is 91 nM; for `CC(C)C[C@H](O)[C@H](O)[C@H](CC1CCCCC1)NC(=O)C(Cc1cscn1)N1CCN(Cc2ccccc2)[C@H](Cc2ccccc2)C1` (stereo partly drawn) [Example 36, 3-(4-Thiazolyl)-2-(R,S)-(3R-benzyl-4-N-benzylpiperazin-1-yl)-propionic acid Amide of 2(S)-Amino-1-cyclohexyl-3(R),4(S)-dihydroxy-6-methylheptane] it is 330 nM.
`CCCCC(C(=O)N[C@@H](CC1CCCCC1)[C@@H](O)[C@@H](O)CC(C)C)N1CCN(C(=O)N2CCOCC2)[C@H](Cc2ccccc2)C1` (stereo partly drawn) [Example 38A, 2-(3R-Benzyl-4-N-(morpholin-1-yl-carbonyl)-piperazin)-1-yl-hexanoic acid Amide of 2(S)-Amino-1-cyclohexyl-3(R),4(S)-dihydroxy-6-methylheptane] had an IC50 of 6.2 nM.
The figure for `CCCC[C@@H](C(=O)N[C@@H](CC1CCCCC1)[C@@H](O)[C@@H](O)CC(C)C)N1CCN(C(=O)OC(C)(C)C)[C@H](Cc2ccccc2)C1=O` [Example 44, 2(S)-(3R-Benzyl-4N-tert-butyloxycarbonyl-2-keto-piperazin-1-yl)-hexanoic acid Amide of 2(S)-Amino-1-cyclohexyl-3(R),4(S)-dihydroxy-6-methylheptane] is 15 nM; for `CC(C)C[C@H](O)[C@H](O)[C@H](CC1CCCCC1)NC(=O)[C@@H](Cc1c[nH]cn1)N1CCN(C(=O)OC(C)(C)C)[C@H](Cc2ccccc2)C1=O` [Example 45, 3R-(4-Imidazolyl)-2(R)-(3R-benzyl-4-N-tert-butyloxycarbonyl-2-keto-piperazin-1-yl)-propionic acid Amide of 2(S)-Amino-1-cyclohexyl-3(R),4(S)-dihydroxy-6-methylheptane] it is 13 nM.
The figure for `CCCC[C@@H](C(=O)N[C@@H](CC1CCCCC1)[C@@H](O)[C@@H](O)CC(C)C)N1CCN(C(=O)N2CCN(C)CC2)[C@H](Cc2ccccc2)C1=O` [Example 47, 2(S)-(3R-Benzyl-4-N-(4-(N'-methyl)-piperazin-1-yl-carbonyl)-2-keto-piperazin-1-yl)-hexanoic acid Amide of 2(S)-Amino-1-cyclohexyl-3(R),4(S)-dihydroxy-6-methylheptane] is 81 nM.
`CCCC[C@@H](C(=O)N[C@@H](CC1CCCCC1)[C@@H](O)[C@@H](O)CC(C)C)N1CCN(C(=O)N(C)CCOCOC)[C@H](Cc2ccccc2)C1=O` [Example 48, 2(S)-(3R-Benzyl-4-N-(N-methyl-N-(methoxymethoxyethyl)-aminocarbonyl)-2-keto-piperazin-1-yl)-hexanoic acid Amide of 2(S)-Amino-1-cyclohexyl-3(R),4(S)-dihydroxy-6-methylheptane] showed an IC50 of 22 nM.
On to `CC(C)C[C@H](O)[C@H](O)[C@H](CC1CCCCC1)NC(=O)C(Cc1cscn1)N1CCN(C(=O)N2CCOCC2)[C@H](Cc2ccccc2)C1=O` (stereo partly drawn) [Example 49B, 3-(4-Thiazolyl)-2-(3R-benzyl-4-N-morpholin-1-yl-carbonyl-2-keto-piperazin-1-yl)-propionic acid Amide of 2(S)-Amino-1-cyclohexyl-3(R),4(S)-dihydroxy-6-methylheptane], for which the IC50 was found to be 32 nM.
The compound `CCCC[C@@H](C(=O)N[C@@H](CC1CCCCC1)[C@@H](O)[C@@H](O)CC(C)C)N1CCN(C(=O)N2CCOCC2)[C@H](Cc2ccccc2)C1=O` [Example 50, 2(S)-(3R-Benzyl-4-N-morpholin-1-yl-carbonyl-2-keto-piperazin-1-yl)-hexanoicacid Amide of 2(S)-Amino-1-cyclohexyl-3(R),4(S)-dihydroxy-6-methylheptane] came in with an IC50 of 22 nM.
As for `CC(C)C[C@H](O)[C@H](O)[C@H](CC1CCCCC1)NC(=O)[C@H](Cc1c[nH]cn1)N1CCN(C(=O)N2CCOCC2)[C@H](Cc2ccccc2)C1=O` [Example 51, 3-(4-Imidazolyl)-2(S)-(3R-benzyl-4-N-morpholin-1-yl-carbonyl-2-keto-piperazin-1-yl) -propionic Acid Amide of 2(S)-Amino-1-cyclohexyl-3(R),4(S)-dihydroxy-6-methylheptane], the IC50 is 230 nM.
The figure for `CC(C)C[C@H](O)[C@H](O)[C@H](CC1CCCCC1)NC(=O)[C@H](Cc1cnc[nH]1)N1CC[C@H](Cc2ccccc2)C1=O` [Example 73, (2S)-2-(Imidazol-4-ylmethyl)-2-((3S)-phenylmethyl-2-oxo-pyrrolidin-1-yl)acetic acid amide of (2S,3R,4S)-2-amino-1-cyclohexyl-3,4-dihydroxy-6-methylheptane] is 67 nM.

For the origin of these results see patent publication US5164388A, “Heterocyclic peptide renin inhibitors” (Abbott Laboratories, priority 1991, dated 1992).
